Results on nine molecules are retold here after PubChem BioAssay (NCI).

Some test systems named below: OVCAR-8 ovarian; LOX IMVI melanoma; MCF7 breast; HCT-15 colon; SF-268 CNS; SK-MEL-28 melanoma; MALME-3M melanoma; NCI-H522 lung; NCI-H23 lung; NCI-H226 lung.
Common to all, as to test: DTP human tumour cell line panel, 48 h

“And” between values parts separate entries of the source, which are not always exact repeats. Identical values can stand only once.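 Protocol summary: plate cells (96-well), add compound at 5 concentrations, incubate 48 h, interpolate endpoints linearly. At the GI50, growth is halved. The concentration for full growth arrest is given as TGI.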

By GI50 is commonly meant the concentration that inhibits growth by half. The term TGI denotes the concentration giving total growth inhibition.

Regarding `N#Cc1c2ccccc2c2nnc3ccccc3n12`, the GI50 is 11.1 µM in the experiment with OVCAR-8 ovarian; 6.47 µM in the experiment on LOX IMVI melanoma; 14.2 µM in the experiment with MCF7 breast; 21.5 µM with HCT-15 colon; 50 µM in the experiment with SF-268 CNS; 78.6 µM in the experiment with SK-MEL-28 melanoma. For the same molecule, the GI50 in the experiment on MALME-3M melanoma is more than 100 µM. The total growth inhibition concentration (TGI) was 45.9 µM in the experiment on OVCAR-8 ovarian; 25.2 µM with LOX IMVI melanoma; 52.4 µM with MCF7 breast; more than 100 µM with HCT-15 colon; more than 100 µM in the experiment on SF-268 CNS; more than 100 µM in the experiment on SK-MEL-28 melanoma. In the experiment on MALME-3M melanoma, this molecule gave a TGI of more than 100 µM.
On to `O=C(/C=C/c1nnc2n(Cc3ccccc3)c(=O)c3c4c(sc3n12)CCCC4)c1ccccc1`, for which the GI50 is 1.09 µM in the experiment on NCI-H522 lung; 0.0387 µM in the experiment on OVCAR-8 ovarian; 3.48 µM in the experiment on LOX IMVI melanoma; more than 100 µM with NCI-H23 lung; 2.04 µM and 0.389 µM in the experiment on HCT-15 colon; 4.59 µM with SF-268 CNS. In the experiment on MALME-3M melanoma, the GI50 was more than 100 µM. Besides, the TGI in the experiment with NCI-H522 lung is more than 100 µM; with OVCAR-8 ovarian, 0.419 µM; in the experiment on NCI-H23 lung it was more than 100 µM; in the experiment on MCF7 breast, more than 100 µM; with HCT-15 colon, more than 100 µM; in the experiment with SF-268 CNS it was more than 100 µM. In the experiment on MALME-3M melanoma, this molecule came in with a TGI of more than 100 µM.
Turning to `NC(=O)CCc1ccccc1Oc1nccc(-c2c(-c3ccc(F)cc3)ncn2C2CCNCC2)n1`, the GI50 with NCI-H522 lung, in the experiment with OVCAR-8 ovarian, in the experiment on LOX IMVI melanoma, in the experiment on MCF7 breast, in the experiment on HCT-15 colon and in the experiment with SF-268 CNS was more than 25 µM throughout. In addition, the GI50 with SK-MEL-28 melanoma and in the experiment with MALME-3M melanoma was more than 25 µM in each case. In addition, the TGI with NCI-H522 lung, in the experiment with OVCAR-8 ovarian, with LOX IMVI melanoma, in the experiment on MCF7 breast, with HCT-15 colon and in the experiment on SF-268 CNS was more than 25 µM throughout. Also, the TGI in the experiment with SK-MEL-28 melanoma and in the experiment on MALME-3M melanoma was more than 25 µM in each case.
`CCOC(=O)[C@@H](C)C[C@H](Cc1ccccc1)NC(=O)c1csc([C@@H](C[C@H](C(C)C)N(C)C(=O)[C@@H](NC(=O)[C@H]2C[C@H](O)CCN2C)C(C)C)OC(C)=O)n1`: the concentration for 50% growth inhibition (GI50) with NCI-H522 lung was less than 0.00167 µM; in the experiment with OVCAR-8 ovarian, 0.0166 µM; in the experiment with LOX IMVI melanoma it was 0.00422 µM; with NCI-H23 lung, 0.00763 µM; in the experiment on MCF7 breast it was less than 0.00167 µM; in the experiment on HCT-15 colon it was 0.149 µM. Besides, the GI50 with NCI-H226 lung is 0.0105 µM; in the experiment on SF-268 CNS, 0.00881 µM; in the experiment on MALME-3M melanoma, 0.00208 µM. Also, the TGI was 0.0367 µM in the experiment on NCI-H522 lung; more than 16.7 µM in the experiment on OVCAR-8 ovarian; more than 16.7 µM in the experiment on LOX IMVI melanoma; more than 16.7 µM in the experiment on NCI-H23 lung; more than 16.7 µM in the experiment with MCF7 breast; more than 16.7 µM with HCT-15 colon. The concentration for total growth inhibition (TGI) in the experiment with NCI-H226 lung was 0.34 µM; with SF-268 CNS it was more than 16.7 µM; in the experiment on MALME-3M melanoma, more than 16.7 µM.
For `O=C(O)c1cn(C2CC2)c2cc(N3CCN(C(=O)Nc4nc(-c5ccc(Br)cc5)cs4)CC3)c(F)cc2c1=O`, the GI50 in the experiment with NCI-H522 lung is 2.41 µM; with OVCAR-8 ovarian, 3.72 µM; in the experiment with LOX IMVI melanoma, 1.09 µM; in the experiment on NCI-H23 lung, 1.43 µM; with MCF7 breast, 2.7 µM; in the experiment on HCT-15 colon, 1.75 µM. For the same molecule, the GI50 with SF-268 CNS is 1.23 µM; in the experiment on SK-MEL-28 melanoma, 4.08 µM; in the experiment with MALME-3M melanoma it was 0.853 µM. The TGI with NCI-H522 lung, in the experiment with OVCAR-8 ovarian, in the experiment on LOX IMVI melanoma, in the experiment on NCI-H23 lung, in the experiment with MCF7 breast and with HCT-15 colon was more than 100 µM in each case. Moreover, the concentration for total growth inhibition (TGI) in the experiment on SF-268 CNS, in the experiment on SK-MEL-28 melanoma and in the experiment with MALME-3M melanoma was more than 100 µM throughout.
As to `C=C1C(=O)OC2CC1C(OC(C)=O)C/C(C)=C/CC/C(C)=C\CCC2(C)O` (stereo not given), the total growth inhibition concentration (TGI) in the experiment on NCI-H522 lung was 3.16 µM and 3.13 µM; in the experiment on OVCAR-8 ovarian it was 14.6 µM and 12.6 µM; in the experiment with NCI-H23 lung, 22.4 µM and 4.44 µM; in the experiment with MCF7 breast it was 16.2 µM and 26.3 µM; in the experiment on HCT-15 colon, 13.5 µM and 3.63 µM; with NCI-H226 lung, 12.1 µM and 34.2 µM. In addition, the TGI in the experiment with SF-268 CNS was 22.9 µM and 20.3 µM; in the experiment on SK-MEL-28 melanoma it was 11.2 µM and 15.7 µM; in the experiment with MALME-3M melanoma, 15 µM. Moreover, the GI50 with NCI-H23 lung is 7.77 µM and 1.84 µM.
With `O=c1c(O)cc2c(O)oc3c(=O)c(O)c(O)c4c(O)oc1c2c43`, the TGI in the experiment with NCI-H522 lung was more than 100 µM; in the experiment with OVCAR-8 ovarian, more than 100 µM; with LOX IMVI melanoma, 34.1 µM; in the experiment on NCI-H23 lung, more than 100 µM; with HCT-15 colon, more than 100 µM; in the experiment with NCI-H226 lung, more than 100 µM. The TGI in the experiment on SF-268 CNS, in the experiment on SK-MEL-28 melanoma and in the experiment with MALME-3M melanoma was more than 100 µM throughout.
Consider `Cc1cc(C(O)(c2ccc(Nc3ccccc3)cc2)c2ccc(Nc3ccc(S(=O)(=O)O)cc3)cc2)ccc1N` (stereo not given), for which the GI50 in the experiment with NCI-H522 lung was 1.26 µM; in the experiment on OVCAR-8 ovarian it was 1.08 µM; in the experiment on LOX IMVI melanoma, 0.975 µM; in the experiment on NCI-H23 lung, 1.69 µM; in the experiment on MCF7 breast, 0.478 µM; in the experiment with HCT-15 colon, 1.04 µM. For the same molecule, the GI50 in the experiment with NCI-H226 lung is 1.63 µM; in the experiment with SF-268 CNS, 1.68 µM; with MALME-3M melanoma, 1.58 µM. The TGI was found to be 4.44 µM in the experiment with NCI-H522 lung; 3.57 µM in the experiment on OVCAR-8 ovarian; 2.17 µM with LOX IMVI melanoma; 3.56 µM with NCI-H23 lung; 2.67 µM with MCF7 breast; 2.95 µM with HCT-15 colon. Further, the TGI with NCI-H226 lung was found to be 3.42 µM; in the experiment on SF-268 CNS it was 4.19 µM; in the experiment on MALME-3M melanoma, 3.11 µM.
In the case of `O=c1[nH]c(F)nc2c1ncn2C1OC(CO)C(O)C1O` (stereo not given), the GI50 with OVCAR-8 ovarian, in the experiment on LOX IMVI melanoma, with NCI-H23 lung, with MCF7 breast, with HCT-15 colon and in the experiment with NCI-H226 lung was more than 100 µM throughout. Further, the GI50 in the experiment on SF-268 CNS, with SK-MEL-28 melanoma and in the experiment on MALME-3M melanoma was more than 100 µM in each case. For the same molecule, the concentration for total growth inhibition (TGI) with OVCAR-8 ovarian, in the experiment with LOX IMVI melanoma, in the experiment with NCI-H23 lung, with MCF7 breast, with HCT-15 colon and in the experiment with NCI-H226 lung was more than 100 µM each time. Besides, the total growth inhibition concentration (TGI) in the experiment on SF-268 CNS, in the experiment with SK-MEL-28 melanoma and with MALME-3M melanoma was more than 100 µM in each case.
